Measured values taken from ChEMBL document CHEMBL4321865, “Discovery of Novel Inhibitors of LpxC Displaying Potent in Vitro Activity against Gram-Negative Bacteria” (J Med Chem, 2020).
In brackets after ≈: the same amount, converted by molar mass.

Tests used:
[1] = system: T1, UDP-3-O-acyl-N-acetylglucosamine deacetylase (Escherichia coli K-12), P0A725 [C125S]
T1 sequence (whole entry): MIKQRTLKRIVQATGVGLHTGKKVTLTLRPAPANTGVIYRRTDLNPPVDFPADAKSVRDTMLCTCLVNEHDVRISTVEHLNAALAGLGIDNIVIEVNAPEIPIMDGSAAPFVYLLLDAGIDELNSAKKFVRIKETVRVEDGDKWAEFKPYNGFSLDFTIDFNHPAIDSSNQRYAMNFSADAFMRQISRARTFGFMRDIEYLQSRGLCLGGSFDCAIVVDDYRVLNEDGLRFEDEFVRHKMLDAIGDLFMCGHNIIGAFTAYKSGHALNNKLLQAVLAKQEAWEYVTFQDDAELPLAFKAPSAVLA

[2] = system: T2, UDP-3-O-acyl-N-acetylglucosamine deacetylase (Pseudomonas aeruginosa (strain ATCC 15692 / PAO1 / 1C / PRS 101 / LMG12228)), P47205 [C40S]
T2 sequence (whole entry): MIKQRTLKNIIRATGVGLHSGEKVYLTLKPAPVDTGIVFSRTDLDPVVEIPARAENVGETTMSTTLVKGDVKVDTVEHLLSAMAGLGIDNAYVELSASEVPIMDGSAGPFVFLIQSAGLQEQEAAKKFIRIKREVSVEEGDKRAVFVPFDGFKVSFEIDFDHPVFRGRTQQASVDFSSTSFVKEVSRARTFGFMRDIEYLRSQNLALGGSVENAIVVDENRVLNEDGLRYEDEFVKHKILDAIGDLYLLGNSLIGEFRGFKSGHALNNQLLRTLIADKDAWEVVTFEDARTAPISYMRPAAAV

[3] = physchem; conditions: n-octanol/phosphate buffered saline, pH 7.4
Description: n-Octanol/phosphate buffered saline partition coefficient, log D of the compound at pH 7.4 by LC-UV method

[4] = physchem; conditions: DMSO, pH 7
Description: Solubility of the compound in DMSO at pH 7 incubated for 24 hrs by LC-UV method

[5] = physchem; conditions: DMSO, pH 9
Description: Solubility of the compound in DMSO at pH 9 incubated for 24 hrs by LC-UV method

[6] = physchem; conditions: DMSO, pH 4
Description: Solubility of the compound in DMSO at pH 4 incubated for 24 hrs by LC-UV method

[7] = system: Escherichia coli; test: microbe, parasite or virus in culture; conditions: ATCC 25922
Description: Antibacterial activity against wild-type Escherichia coli ATCC 25922 by broth microdilution method

[8] = system: Klebsiella pneumoniae; test: microbe, parasite or virus in culture; conditions: T 6474
Description: Antibacterial activity against multi-drug resistant Klebsiella pneumoniae T 6474 by broth microdilution method

[9] = system: Pseudomonas aeruginosa; test: microbe, parasite or virus in culture; conditions: ATCC 27853
Description: Antimicrobial activity against Pseudomonas aeruginosa ATCC 27853 by broth microdilution method

[10] = system: Pseudomonas aeruginosa; test: microbe, parasite or virus in culture; conditions: PAO1
Description: Antimicrobial activity against wild-type Pseudomonas aeruginosa PAO1 by broth microdilution method

SMILES | ΔTm [1] | ΔTm [2] | logD [3] | solubility at 24 h [4] | solubility at 24 h [5] | solubility at 24 h [6] | MIC [7] | MIC [8] | MIC [9] | MIC [10]
C[C@@](CCN1Cc2cc(C#Cc3ccc(C4(O)COC4)cc3)cn2C1=O)(C(=O)NO)S(C)(=O)=O | 10.8 °C | 13 °C | 1.2 | > 820 µg/mL | > 820 µg/mL | 195 µg/mL (≈ 400 µM) | 0.12 µg/mL (≈ 0.246 µM) | 0.5 µg/mL (≈ 1.03 µM) | 0.5 µg/mL (≈ 1.03 µM) | 1 µg/mL (≈ 2.05 µM)
C[C@@](CCN1Cc2cc(C#Cc3ccc([C@@H]4C[C@H]4CO)cc3)cn2C1=O)(C(=O)NO)S(C)(=O)=O | 12.1 °C | 13.4 °C | 2 | 112 µg/mL (≈ 231 µM) | 568 µg/mL (≈ 1170 µM) | 73 µg/mL (≈ 150 µM) | ≤ 0.06 µg/mL | ≤ 0.06 µg/mL | 0.5 µg/mL (≈ 1.03 µM) | 1 µg/mL (≈ 2.06 µM)
C[C@@](CCN1Cc2cc(C#CC#CCNS(C)(=O)=O)cn2C1=O)(C(=O)NO)S(C)(=O)=O | 8 °C | 10.8 °C | – | – | – | – | 2 µg/mL (≈ 4.25 µM) | 4 µg/mL (≈ 8.5 µM) | 4 µg/mL (≈ 8.5 µM) | 1 µg/mL (≈ 2.13 µM)
CC(C)(O)c1ccc(C#Cc2cc3n(c2)C(=O)N(CC[C@](C)(C(=O)NO)S(C)(=O)=O)C3)cc1 | 11.8 °C | 13.7 °C | 1.9 | 110 µg/mL (≈ 232 µM) | 556 µg/mL (≈ 1170 µM) | 70 µg/mL (≈ 148 µM) | 0.12 µg/mL (≈ 0.253 µM) | 0.25 µg/mL (≈ 0.528 µM) | 0.5 µg/mL (≈ 1.06 µM) | 1 µg/mL (≈ 2.11 µM)
CC(C)(O)c1ccc(C#Cc2cc3c(s2)C(=O)N(CC[C@](C)(C(=O)NO)S(C)(=O)=O)C3)cc1 | 13 °C | 15.5 °C | 2.1 | 83 µg/mL (≈ 169 µM) | 613 µg/mL (≈ 1250 µM) | 69 µg/mL (≈ 141 µM) | 0.12 µg/mL (≈ 0.245 µM) | 0.25 µg/mL (≈ 0.51 µM) | 0.5 µg/mL (≈ 1.02 µM) | 1 µg/mL (≈ 2.04 µM)
CC(C)(O)C#CC#Cc1ccc2c(c1)CN(CC[C@](C)(C(=O)NO)S(C)(=O)=O)C2=O | 8.5 °C | 12.6 °C | 1.2 | 97 µg/mL (≈ 224 µM) | 564 µg/mL (≈ 1300 µM) | 71 µg/mL (≈ 164 µM) | 1 µg/mL (≈ 2.31 µM) | 2 µg/mL (≈ 4.62 µM) | 2 µg/mL (≈ 4.62 µM) | 2 µg/mL (≈ 4.62 µM)
C[C@@](CCN1Cc2cc(C#Cc3ccc(C4(O)COC4)cc3)sc2C1=O)(C(=O)NO)S(C)(=O)=O | 11.4 °C | 14.3 °C | 1.5 | > 850 µg/mL | > 850 µg/mL | 114 µg/mL (≈ 226 µM) | 0.12 µg/mL (≈ 0.238 µM) | 0.5 µg/mL (≈ 0.991 µM) | 0.5 µg/mL (≈ 0.991 µM) | 2 µg/mL (≈ 3.96 µM)
C[C@@](CCN1Cc2cc(C#Cc3ccc(COC(=O)N4CCC(O)CC4)cc3)cn2C1=O)(C(=O)NO)S(C)(=O)=O | 11.8 °C | 14.2 °C | 1.7 | 15 µg/mL (≈ 26.2 µM) | 251 µg/mL (≈ 438 µM) | < 1 µg/mL | 0.25 µg/mL (≈ 0.437 µM) | 0.5 µg/mL (≈ 0.873 µM) | 2 µg/mL (≈ 3.49 µM) | 2 µg/mL (≈ 3.49 µM)
C[C@@](CCN1Cc2cc(C#Cc3ccc(CN4CCOCC4)cc3)sc2C1=O)(C(=O)NO)S(C)(=O)=O | 13 °C | 15.5 °C | 1.8 | 155 µg/mL (≈ 292 µM) | 571 µg/mL (≈ 1070 µM) | > 900 µg/mL | ≤ 0.06 µg/mL | 0.12 µg/mL (≈ 0.226 µM) | 1 µg/mL (≈ 1.88 µM) | 1 µg/mL (≈ 1.88 µM)
C[C@@](CCN1Cc2cc(C#Cc3ccc(C4(CO)CC4)cc3)cn2C1=O)(C(=O)NO)S(C)(=O)=O | 11.8 °C | 13.6 °C | 2 | 7 µg/mL (≈ 14.4 µM) | 56 µg/mL (≈ 115 µM) | 5 µg/mL (≈ 10.3 µM) | 0.12 µg/mL (≈ 0.247 µM) | 0.25 µg/mL (≈ 0.515 µM) | 0.5 µg/mL (≈ 1.03 µM) | 0.5 µg/mL (≈ 1.03 µM)
CC(C)(O)C#CC#Cc1cc2n(c1)C(=O)N(CC[C@](C)(C(=O)NO)S(C)(=O)=O)C2 | 9.9 °C | 12.3 °C | 0.9 | > 710 µg/mL | > 710 µg/mL | 398 µg/mL (≈ 944 µM) | 0.5 µg/mL (≈ 1.19 µM) | 1 µg/mL (≈ 2.37 µM) | 1 µg/mL (≈ 2.37 µM) | 2 µg/mL (≈ 4.75 µM)
CC(C)(O)c1ccc(C#Cc2ccc3c(c2)CN(CC[C@](C)(C(=O)NO)S(C)(=O)=O)C3=O)cc1 | 9.5 °C | 12.8 °C | 2.3 | 7 µg/mL (≈ 14.4 µM) | 136 µg/mL (≈ 281 µM) | 4 µg/mL (≈ 8.25 µM) | 0.25 µg/mL (≈ 0.516 µM) | 0.5 µg/mL (≈ 1.03 µM) | 4 µg/mL (≈ 8.25 µM) | 8 µg/mL (≈ 16.5 µM)
C[C@@](CCN1Cc2cc(C#Cc3ccc(CN4CCOCC4)cc3)cn2C1=O)(C(=O)NO)S(C)(=O)=O | 11.9 °C | 13.6 to 13.9 °C | 1.6 | 68 µg/mL (≈ 132 µM) | 621 µg/mL (≈ 1210 µM) | 802 µg/mL (≈ 1560 µM) | – | 0.25 µg/mL (≈ 0.486 µM) | 1 µg/mL (≈ 1.94 µM) | 1 µg/mL (≈ 1.94 µM)
C[C@@](CCN1Cc2cc(C#CC#CC3(O)COC3)ccc2C1=O)(C(=O)NO)S(C)(=O)=O | 7 °C | 11.6 °C | – | – | – | – | 16 µg/mL (≈ 35.8 µM) | 8 µg/mL (≈ 17.9 µM) | 8 µg/mL (≈ 17.9 µM) | 4 µg/mL (≈ 8.96 µM)
C[C@@](CCN1Cc2cc(C#CC#C[C@H](O)CO)cn2C1=O)(C(=O)NO)S(C)(=O)=O | 7.3 °C | 10.3 °C | – | – | – | – | 8 µg/mL (≈ 18.9 µM) | 8 µg/mL (≈ 18.9 µM) | 4 µg/mL (≈ 9.45 µM) | 8 µg/mL (≈ 18.9 µM)
C[C@@](CCN1Cc2cc(C#CC#C[C@@H]3C[C@H]3CO)cn2C1=O)(C(=O)NO)S(C)(=O)=O | 10.8 °C | 13.6 °C | – | – | – | 600 µg/mL (≈ 1380 µM) | 0.12 µg/mL (≈ 0.277 µM) | 0.25 µg/mL (≈ 0.577 µM) | 0.5 µg/mL (≈ 1.15 µM) | 0.5 µg/mL (≈ 1.15 µM)
